In patent publication US20240059703A1 (AMGEN INC., priority 2021, published 2024):
Read-outs that look alike come from different tables or passages of the source.

Columns and labels:
[1] = system: A549 (human lung carcinoma) cells; test: Cell Viability Assay (CellTiter-Glo), A549; assay type: cell-based
Experimental: MIA PaCa-2 (human pancreatic carcinoma; ATCC CRL-1420) or A549 (human lung carcinoma; ATCC CCL-185) cells were cultured in RPMI 1640 medium containing 10% fetal bovine serum and 1× penicillin/streptomycin/L-glutamine. Cells were seeded in 384-well plates at a density of 1.67E+04 cells/mL and incubated at 37° C., 5% CO2, overnight. Serially-diluted compound or DMSO was added to the cells, and plates were incubated at 37° C., 5% CO2 for 72 h. Cell viability was measured using a CellTiter-Glo® Luminescent Cell Viability Assay kit (Promega) according to the manufacturer's protocol. The luminescence signal of treated samples was normalized to DMSO control, and data were analyzed using a 4-parameter logistic model to calculate IC50 values.

[2] = system: MIA PaCa-2 (human pancreatic carcinoma) cells; test: Cell Viability Assay (CellTiter-Glo), MIA PaCa-2; assay type: cell-based
Experimental: Serially-diluted compound or DMSO was added to the cells, and plates were incubated at 37° C., 5% CO2 for 72 h. Cell viability was measured using a CellTiter-Glo® Luminescent Cell Viability Assay kit (Promega) according to the manufacturer's protocol. The luminescence signal of treated samples was normalized to DMSO control, and data were analyzed using a 4-parameter logistic model to calculate IC50 values.

KRAS G12C = KRAS G12C (Homo sapiens (Human), UniProt P01116, C118A/G12C); test: 2 h coupled exchange assay; assay type: biochemical
Experimental: The term “2 h coupled exchange assay” or “20 h coupled exchange assay” as used herein refers to the assay described in the Section entitled “BIOLOGICAL EVALUATION.”

[3] = Avg 2 h Coupled exchange IC50, 2 h compound pre-incubation, SOS-mediated nucleotide exchange

Chain of KRAS G12C (P01116 other isoform, or with tags, fused parts or gaps G12C/C118A): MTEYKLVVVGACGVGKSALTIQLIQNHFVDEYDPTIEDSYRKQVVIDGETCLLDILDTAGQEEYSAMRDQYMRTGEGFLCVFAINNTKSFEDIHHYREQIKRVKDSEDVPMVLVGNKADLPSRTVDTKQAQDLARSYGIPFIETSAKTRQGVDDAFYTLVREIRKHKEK

IC50 ([1]; Homo sapiens, A549, 72 h) | IC50 ([2]; Homo sapiens, MIA PaCa-2, 72 h) | IC50 (KRAS G12C; Avg 2 h Coupled exchange IC50, 2 h compound pre-incubation) | IC50 ([1]; 72 h) | IC50 ([2]; 72 h) | IC50 (KRAS G12C; read-out: Avg 2 h Coupled exchange IC50, 2 h compound pre-incubation) | IC50 (KRAS G12C; [3]) | SMILES
> 5000 nM | 299 nM | 85 nM |  |  |  |  | C=CC(=O)N1CC2(CCN(c3nc4c(c(-c5ncccc5F)c3C#N)CC[C@@H](c3scnc3C)C4)C2)C1 (racemic) [Example 23-57, (7R)-4-(3-fluoro-2-pyridinyl)-7-(4-methyl-1,3-thiazol-5-yl)-2-(2-(2-propenoyl)-2,6-diazaspiro[3.4]octan-6-yl)-5,6,7,8-tetrahydro-3-quinolinecarbonitrile (7S)-4-(3-fluoro-2-pyridinyl)-7-(4-methyl-1,3-thiazol-5-yl)-2-(2-(2-propenoyl)-2,6-diazaspiro[3.4]octan-6-yl)-5,6,7,8-tetrahydro-3-quinolinecarbonitrile]
 |  |  | > 5000 nM | 1120 nM | 62 nM |  | C=CC(=O)N1CC2(CCN(c3nc4c(c(-c5c(C)ccc6[nH]ncc56)c3C#N)CC(C(C)C)C4)C2)C1 (racemic) [Example 24-1, (6R)-4-(5-methyl-1H-indazol-4-yl)-6-(2-propanyl)-2-(2-(2-propenoyl)-2,6-diazaspiro[3.4]octan-6-yl)-6,7-dihydro-5H-cyclopenta[b]pyridine-3-carbonitrile and (6S) 4-(5-methyl-1H-indazol-4-yl)-6-(2-propanyl)-2-(2-(2-propenoyl)-2,6-diazaspiro[3.4]octan-6-yl)-6,7-dihydro-5H-cyclopenta[b]pyridine-3-carbonitrile]
> 5000 nM |  |  |  | 36.4 nM |  | 14 nM | C=CC(=O)N1CC2(CCN(c3nc4c(c(-c5c(C)ccc6[nH]ncc56)c3C#N)CCC(C)(C)C4)C2)C1 (single isomer, unassigned) [Example 1-8, (P)-7,7-dimethyl-4-(5-methyl-1H-indazol-4-yl)-2-(2-(2-propenoyl)-2,6-diazaspiro[3,4]octan-6-yl)-5,6,7,8-tetrahydro-3-quinolinecarbonitrile]
 |  |  | 2910 nM | 2500 nM |  | 6700 nM | C=CC(=O)N1CC2(CCN(c3nc4c(c(-c5c(C)ccc6[nH]ncc56)c3C#N)CCC(C)(C)C4)C2)C1 (single isomer, unassigned) [Example 1-10, (M)-7,7-dimethyl-4-(5-methyl-1H-indazol-4-yl)-2-(2-(2-propenoyl)-2,6-diazaspiro[3.4]octan-6-yl)-5,6,7,8-tetrahydro-3-quinolinecarbonitrile]
6750 nM | 53 nM |  |  |  |  | 27 nM | C=CC(=O)N1CC2(CCN(c3nc4c(c(-c5c(C)ccc6[nH]ncc56)c3C)CCC(C)(C)C4)C2)C1 (single isomer, unassigned) [Example 2-11, (P)-1-(6-(3,7,7-trimethyl-4-(5-methyl-1H-indazol-4-yl)-5,6,7,8-tetrahydro-2-quinolinyl)-2,6-diazaspiro[3.4]octan-2-yl)-2-propen-1-one]
> 5000 nM | 106 nM |  |  |  |  | 66 nM | C=CC(=O)N1CC2(CCN(c3nc4c(c(-c5cccc6cc(O)ccc56)c3C)CCC(C)(C)C4)C2)C1 (single isomer, unassigned) [Example 2-15, (P)-1-(6-(4-(6-hydroxy-1-naphthalenyl)-3,7,7-trimethyl-5,6,7,8-tetrahydro-2-quinolinyl)-2,6-diazaspiro[3.4]octan-2-yl)-2-propen-1-one]
> 5000 nM | 155 nM |  |  |  |  | 64 nM | C=CC(=O)N1CC2(CCN(c3nc4c(c(-c5ccc(F)c6sc(N)nc56)c3C)CCC(C)(C)C4)C2)C1 (single isomer, unassigned) [Example 2-17]
> 5000 nM | 441 nM |  |  |  |  | 161 nM | C=CC(=O)N1CC2(CCN(c3nc4c(c(-c5c(C)ccc6cnn(C)c56)c3C)CCC(C)(C)C4)C2)C1 (single isomer, unassigned) [Example 2-21, (P)-1-(6-(4-(1,6-dimethyl-1H-indazol-7-yl)-3,7,7-trimethyl-5,6,7,8-tetrahydro-2-quinolinyl)-2,6-diazaspiro[3.4]octan-2-yl)-2-propen-1-one]
 |  |  | > 5000 nM | 68 nM |  | 9 nM | C=CC(=O)N1CC2(CCN(c3nc4c(c(-c5cc(O)cc6ccccc56)c3C#N)[C@H]3CC[C@@H]4C3)C2)C1 (single isomer, unassigned) [Example 2-39]
 |  |  | 2000 nM | 529 nM |  | 46 nM | C=CC(=O)N1CC2(CCN(c3nc4c(c(-c5cc(O)cc6ccccc56)c3C#N)[C@H]3CC[C@@H]4C3)C2)C1 (single isomer, unassigned) [Example 2-40]
> 5000 nM | > 5000 nM |  |  |  |  | 77 nM | C=CC(=O)N1CC2(CCN(c3nc4c(c(-c5cc(O)cc6cccnc56)c3C#N)C[C@H]3C[C@@H]4C3(C)C)C2)C1 (single isomer, unassigned) [Example 2-45]
> 5000 nM | 135 nM |  |  |  |  | 6 nM | C=CC(=O)N1CC2(CCN(c3nc4c(c(-c5cc(O)cc6ncccc56)c3C#N)C[C@H]3C[C@@H]4C3(C)C)C2)C1 (single isomer, unassigned) [Example 2-46]
> 5000 nM | 56 nM |  |  |  |  | 28 nM | C=CC(=O)N1CC2(CCN(c3cc4c(c(-c5cc(O)cc6ccccc56)c3C#N)OCCC4)C2)C1 (single isomer, unassigned) [Example 2-54, (M)-8-(3-hydroxy-1-naphthalenyl)-6-(2-(2-propenoyl)-2,6-diazaspiro[3.4]octan-6-yl)-3,4-dihydro-2H-chromene-7-carbonitrile]
> 5000 nM | 921 nM |  |  |  |  | 106 nM | C=CC(=O)N1CC2(CCN(c3nc4ccccc4c(-c4c(C)ccc5[nH]ncc45)c3C)[C@H]2C)C1 (single isomer, unassigned) [Example 2-57]
> 5000 nM | 2080 nM |  |  |  |  | 282 nM | C=CC(=O)N1CC2(CCN(c3nc4cc(F)ccc4c(-c4c(C)ccc5[nH]ncc45)c3C)[C@H]2C)C1 (single isomer, unassigned) [Example 2-58]
 |  |  | > 5000 nM | 1320 nM |  | 134 nM | C=CC(=O)N1CC2(CCN(c3nc4cc(F)ccc4c(-c4c(C)ccc5[nH]ncc45)c3C)[C@H]2C)C1 (single isomer, unassigned) [Example 2-61]
> 5000 nM | 221 nM |  |  |  |  | 15 nM | C=CC(=O)N1CC2(CCN(c3nc4c(c(-c5cc(O)ccc5C)c3C#N)C[C@H]3C[C@@H]4C3(C)C)C2)C1 (single isomer, unassigned) [Example 2-69]
> 5000 nM | 202 nM |  |  |  |  | 21 nM | C=CC(=O)N1CC2(CCN(c3nc4c(c(-c5cc(O)ccc5Cl)c3C#N)C[C@H]3C[C@@H]4C3(C)C)C2)C1 (single isomer, unassigned) [Example 2-74]
> 5000 nM | 58 nM |  |  |  |  | 53 nM | C=CC(=O)N1CC2(CCN(c3nc4c(c(-c5cc(O)ccc5C)c3Cl)COC(C)(C)C4)C2)C1 (single isomer, unassigned) [Example 2-81, (P)-1-(6-(3-chloro-4-(5-hydroxy-2-methylphenyl)-7,7-dimethyl-7,8-dihydro-5H-pyrano[4,3-b]pyridin-2-yl)-2,6-diazaspiro[3,4]octan-2-yl)-2-propen-1-one]
> 5000 nM | 25 nM |  |  |  |  | 33 nM | C=CC(=O)N1CC2(CCN(c3cc4c(c(-c5c(C)ccc6[nH]ncc56)c3C#N)COCC4)C2)C1 (single isomer, unassigned) [Example 2-100, (P)-8-(5-methyl-1H-indazol-4-yl)-6-(2-(2-propenoyl)-2,6-diazaspiro[3.4]octan-6-yl)-3,4-dihydro-1H-2-benzopyran-7-carbonitrile]
> 5000 nM | 3 nM |  |  |  |  | 23 nM | C=CC(=O)N1CC2(CCN(c3nc4c(c(-c5c(C)c(Cl)cc6[nH]ncc56)c3Cl)COC(C)(C)C4)C2)C1 (single isomer, unassigned) [Example 2-109, (P)-1-(6-(3-chloro-4-(6-chloro-5-methyl-1H-indazol-4-yl)-7,7-dimethyl-7,8-dihydro-5H-pyrano[4,3-b]pyridin-2-yl)-2,6-diazaspiro[3.4]octan-2-yl)-2-propen-1-one]
> 5000 nM | 1690 nM |  |  |  |  | 691 nM | C=CC(=O)N1CC2(CCN(c3nc(-c4ccccc4F)c4c(n3)N([C@H](CC(=O)NC)CC(C)C)CC4)C2)C1 (single isomer, unassigned) [Example 9]
> 5000 nM | 3240 nM |  |  |  |  | 1680 nM | C=CC(=O)N1CC2(CCN(c3nc(-c4ccccc4F)c4c(n3)N([C@H](CC(=O)NC)CC(C)C)CCC4)C2)C1 (single isomer, unassigned) [Example 10]
12600 nM | 1160 nM |  |  |  |  | 1940 nM | C=CC(=O)N1CC2(CCN(c3nc(-c4ccccc4F)c4ccn([C@H](CC(=O)NC)CC(C)C)c4n3)C2)C1 (single isomer, unassigned) [Example 11]
> 5000 nM | > 5000 nM |  |  |  |  | 137 nM | C=CC(=O)N1CC2(CCN(c3nc4c(c(-c5cc(O)cc6nccnc56)c3C#N)C[C@H]3C[C@@H]4C3(C)C)C2)C1 (single isomer, unassigned) [Example 12-38]
